This is an account of results in patent US7977049B2, “Methods and compositions for extending the life span and increasing the stress resistance of cells and organisms” (priority 2002, dated 2011).

In one assay the target is T1, recombinant human SIRT1 (Homo sapiens, UniProt Q96EB6).
T1 sequence (Q96EB6 1-747): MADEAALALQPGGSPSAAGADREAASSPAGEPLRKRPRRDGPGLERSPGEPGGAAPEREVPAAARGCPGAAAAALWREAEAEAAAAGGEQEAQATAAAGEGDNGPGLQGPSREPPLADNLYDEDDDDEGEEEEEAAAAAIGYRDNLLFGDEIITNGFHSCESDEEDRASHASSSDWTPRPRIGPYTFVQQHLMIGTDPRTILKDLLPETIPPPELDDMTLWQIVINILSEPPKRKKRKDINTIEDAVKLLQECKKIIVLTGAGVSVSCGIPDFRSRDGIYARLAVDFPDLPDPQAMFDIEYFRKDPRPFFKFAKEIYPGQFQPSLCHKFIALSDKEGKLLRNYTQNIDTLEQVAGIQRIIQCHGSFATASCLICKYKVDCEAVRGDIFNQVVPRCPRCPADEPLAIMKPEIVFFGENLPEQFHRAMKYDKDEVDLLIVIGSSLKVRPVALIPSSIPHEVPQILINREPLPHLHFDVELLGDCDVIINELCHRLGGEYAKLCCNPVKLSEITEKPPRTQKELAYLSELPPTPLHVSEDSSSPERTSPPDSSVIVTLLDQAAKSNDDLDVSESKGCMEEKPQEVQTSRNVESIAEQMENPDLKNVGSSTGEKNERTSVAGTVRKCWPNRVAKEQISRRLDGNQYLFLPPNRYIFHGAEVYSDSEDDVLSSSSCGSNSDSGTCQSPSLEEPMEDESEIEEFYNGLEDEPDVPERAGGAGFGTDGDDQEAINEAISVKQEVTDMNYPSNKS
Description: In vitro deacetylation assay (HDAC Fluorescent Activity Assay), SIRT1. Format: biochemical. Here is the method:
(§1) FIG. 13. […] Reactions were terminated by the addition of developer and samples were analyzed by fluorometry (excitation set at 360 nm and emission at 460 nm). Experiments were performed in triplicate. Data is shown as a Lineweaver-Burk double reciprocal plot of arbitrary fluorescence units (AFUs) min^−1 versus NAD^+ (μM). B, Experiments were performed as in A, except that recombinant human SIRT1 was used and reactions were carried out at 37° C. […] Reactions were carried out at 37° C. for 30 minutes and fluorescence was measured as in A.
(§2) In vitro deacetylation assays—Recombinant GST tagged yeast Sir2p (gift of D. Moazed) and recombinant human SIRT1 (47′) were assayed for deacetylase activity using the HDAC Fluorescent Activity Assay/Drug Discovery Kit (AK-500, BIOMOL Research Laboratories). This assay system allows detection of a fluorescent signal upon deacetylation of a histone substrate when treated with developer. Fluorescence was measured on a fluorometric reader (Cytofluor II 400 series PerSeptive Biosystems) with excitation set at 360 nm and emission detection set at 460 nm. Reactions consisted of either 5 μg of GST-Sir2 or 2.5 μg of SIRT1, incubated with 250 μM acetylated histone substrate, 1 mM DTT and a range of NAD^+ concentrations as described, in 50 μl of assay buffer. […]

In assay [1] the test system is yeast (PSY316AT and sir2::TRP1 strains). Here is the method: (§3) FIG. 9. […] A, Strains were assayed for rDNA stability by examining the rate of loss of an ADE2 marker integrated at the rDNA locus. […] More than 10,000 colonies were examined for each strain and each experiment was performed in triplicate. Average recombination frequencies (+/−s.d.) per cell division are shown. Relevant strains: W303-1A RDN1::ADE2 (W303AR5) and W303AR5 derivatives 2×SIR2 (YDS1572) and sir2::TRP1 (YDS878). […] C and D, Life spans were determined by scoring the number of daughter cells produced by each mother cell before cessation of cell division (68′,69′). Cells were pre-grown for a minimum of 48 h on complete glucose medium.
Replicative life span determination was performed by micromanipulation as described (25′). A minimum of 40 cells were examined per experiment and each experiment was performed at least twice independently. Statistical significance of life span differences was determined using the Wilcoxon rank sum test. Differences are stated to be significant when the confidence is higher than 95%.
Cells were grown for two days on fresh yeast YPD medium to ensure that they had fully recovered from conditions of calorie restriction prior to the assay. Daughter cells that emerged from previously unbudded mother cells were then micro-manipulated away and scored.

Assay [2] deals with silencing at the rDNA locus (RDN1).
Description: Silencing of the MET15 marker is indicated by the accumulation of a brown pigment. Single dark brown colonies in RDN1::MET15 strains represent marker loss events. […] Silencing of the ADE2 marker results in the accumulation of a red pigment.
Cells were grown at 30° C. on YPD medium (1% yeast extract, 2% bactopeptone, 2% glucose w/v) unless otherwise stated. The extent of silencing at the ribosomal DNA locus was determined by growing RDN1::MET15 strains on Pb^2+-containing medium (0.3% peptone, 0.5% yeast extract, 4% glucose, 0.02% (w/v) ammonium acetate, 0.07% Pb(NO3)2 and 2% agar).
Strains with either an ADE2 or MET15 marker integrated at the rDNA locus (RDN1) were examined. Silencing of ADE2 results in the accumulation of a red pigment on plates with limiting adenine, whereas silencing of MET15 leads to production of a brown pigment on Pb^2+-containing medium. […] Strains with a single extra copy of SIR2 (2×SIR2) or lacking SIR2 (sir2::TRP1), were included as controls for increased silencing and lack of silencing, respectively.
In assay [3] the target is T2, association of Sir2 with rDNA, HMR and sub-telomeric DNA (Saccharomyces cerevisiae, UniProt P06700).
T2 construct: endogenous in cells; host or cells: S. cerevisiae W303AR5
T2 sequence (P06700 whole entry): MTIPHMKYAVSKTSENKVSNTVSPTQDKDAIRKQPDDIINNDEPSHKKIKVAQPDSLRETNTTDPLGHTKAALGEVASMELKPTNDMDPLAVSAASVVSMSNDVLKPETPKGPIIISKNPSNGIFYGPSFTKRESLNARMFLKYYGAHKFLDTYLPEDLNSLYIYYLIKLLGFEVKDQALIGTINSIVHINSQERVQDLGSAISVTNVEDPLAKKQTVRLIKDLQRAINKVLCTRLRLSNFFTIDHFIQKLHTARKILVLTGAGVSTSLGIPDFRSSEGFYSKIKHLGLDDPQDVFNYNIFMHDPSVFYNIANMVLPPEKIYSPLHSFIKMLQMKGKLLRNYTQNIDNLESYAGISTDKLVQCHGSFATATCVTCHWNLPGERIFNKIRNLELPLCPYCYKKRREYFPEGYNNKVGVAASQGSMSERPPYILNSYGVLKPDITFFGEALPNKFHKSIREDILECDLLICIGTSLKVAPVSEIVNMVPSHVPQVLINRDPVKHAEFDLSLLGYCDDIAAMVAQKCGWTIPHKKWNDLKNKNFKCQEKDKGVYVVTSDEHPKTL
Kind of assay: Chromatin immunoprecipitation with α-Sir2 antibody. Type of assay: cell-based. Conditions: 5 mM nicotinamide. Here is the method:
FIG. 12. […] PCR amplification of both input DNA from whole cell extracts and immunoprecipitated chromatin are shown. PCR was performed using primer pairs specific for the CUP1 gene (top panels), 5S rDNA (second panels), the HMR locus (third panels), or subtelomeric DNA 1.4 and 0.6 kb from telomeres (bottom panels).
Fluorescence Microscopy and Chomatin immunoprecipitation—GFP fluorescence was visualized in live cells grown to log phase in synthetic complete (SC) medium (1.67% yeast nitrogen base, 2% glucose, 40 mg/liter each of histidine, uridine, tryptophan, adenine and leucine). Images were captured using a Nikon Eclipse E600 microscope at a magnification of 1000× and analyzed with Scion Image software. PCR reactions were carried out in a 50 μl volume using a 1/5000 or a 1/12500 dilution of input DNA from precleared whole-cell extracts and a 1/50 dilution of immunoprecipitated DNA. PCR parameters were as follows. For CUP1 and 5S rDNA primer pairs, 26 cycles of PCR were performed with an annealing temperature of 55° C. For Tel 0.6, Tel 1.4 and HM primer pairs 32 cycles at an annealing temperature of 50° C. were used. PCR products were separated by gel electrophoresis on a 2.3% agarose gel and visualized by ethidium bromide staining.

In assay [4] the test system is silencing of mating type genes. Description: Mating type locus silencing assay. Type of assay: cell-based, Saccharomyces cerevisiae. Conditions: nicotinamide.
The target in assay [5] is T3, Recombinant GST tagged yeast Sir2p (Saccharomyces cerevisiae, UniProt P06700).
T3 construct: gift of D. Moazed
T3 sequence (P06700 whole entry): as above
Kind of assay: In vitro deacetylation assay (HDAC Fluorescent Activity Assay), Sir2. Type of assay: biochemical. Conditions: 200-750 μM NAD+, 30° C. As for the experimental part: as §1, §2

The subject of another assay is silencing at telomeres. Kind of assay: Telomeric silencing assay (ADE2 marker at the telomere). Type of assay: cell-based, Saccharomyces cerevisiae. Conditions: 5 mM nicotinamide, limiting adenine.
The next assay deals with Sir2. Description: Sir2 protein levels in the presence of nicotinamide. Type of assay: cell-based, Saccharomyces cerevisiae. Conditions: nicotinamide 1-5 mM.
Assay [6] deals with rDNA locus of yeast (W303AR5 strains). Kind of assay: Ribosomal DNA recombination (loss of ADE2 marker at the rDNA locus). Format: cell-based, Saccharomyces cerevisiae. Conditions: 5 mM nicotinamide. Here is the method:
as §3

The subject of assay [7] is silent mating type locus (HMR). Description: HMR::GFP reporter silencing (fluorescence microscopy and FACS). Format: cell-based, Saccharomyces cerevisiae. Particulars: for GFP expression from HMR by FACS: asynchronous wild type cells, 5 mM compound. As for the experimental part:
FIG. 10. […] Cells were photographed live. […] Cells were analyzed by fluorescent activated cell sorting (FACS) to determine the extent of ADH-GFP expression. C, A MATa derivative of strain YDS970 (YDS1005) was deleted for HML and treated with 10 μg/ml alpha-factor for 3 hours. […] Cell cycle progression was monitored at each time point by FACS analysis of propidium iodide stained cells.
GFP fluorescence was quantified by fluorescence-activated cell sorting (FACS) using a FACSCalibur flow cytometer (Becton Dickinson, Calif.) as described (45′). For G1-arrest experiments, cells were treated with 10 μg/ml alpha factor for 3 hours. DNA content was determined by FACS analysis of fixed cells stained with propidium iodide (Sigma) as described (45′). Typically 20,000 cells were analyzed per sample. Data acquisition and analysis were performed using CELLQuest software (Becton Dickenson).

Where two headings read alike, the source gives them in different places.

Description for silencing at telomeres: Silencing of the MET15 marker is indicated by the accumulation of a brown pigment. Single dark brown colonies in RDN1::MET15 strains represent marker loss events. Relevant genotypes: met15Δ (JS209), MET15 (JS241), RDN1::MET15 (JS237), sir2::TRP1 (JS218), 2×SIR2 (YDS1583). […] Silencing of the ADE2 marker results in the accumulation of a red pigment. Relevant genotypes: (PSY316AT), W303-1 A ADE2 (YDS1596) and W303-1A ade2 (YDS 1595).
Cells were grown at 30° C. on YPD medium (1% yeast extract, 2% bactopeptone, 2% glucose w/v) unless otherwise stated. The extent of silencing at the ribosomal DNA locus was determined by growing RDN1::MET15 strains on Pb^2+-containing medium (0.3% peptone, 0.5% yeast extract, 4% glucose, 0.02% (w/v) ammonium acetate, 0.07% Pb(NO3)2 and 2% agar). […] Ribosomal DNA recombination frequencies were determined as previously described (44′).
To monitor telomeric silencing, we used a strain in which the ADE2 gene is integrated at the subtelomeric (Y′) region of the right arm of chromosome V (22′). On plates with limiting adenine, colonies have red/white sectors due to variegated expression of the ADE2 marker.

In the case of `NC(=O)c1cccnc1` [nicotinamide], the “mode of inhibition of SIRT1 (Lineweaver-Burk plot)” value at recombinant human SIRT1 (varying amounts of nicotinamide and NAD+) is listed as “non-competitive”. Further, in assay [1] (sir2::TRP1 (YDS1594), 5 mM nicotinamide), the “Average life span, sir2 strain” value is on record as 11.7. Further, the “Average life span, wild type” value in [1] (wild type (PSY316AT), 5 mM nicotinamide) is recorded as 12.1. Besides, in assay [2] (5 mM nicotinamide), the “silencing of MET15 marker at the rDNA locus” value is reported as “completely abolished”. Also, in [2] (addition of nicotinamide), the “Silencing of an ADE2 marker at the rDNA locus” value is “similarly abolished”. Further, in assay [3], the “ChIP: Sir2 association with 5S rDNA” value is given as “did not alter the amount of PCR product” and the “ChIP: Sir2 association with HMR” value is “no PCR product was obtained”. The “ChIP: Sir2 association with sub-telomeric DNA” value in assay [3] (0.6 and 1.4 kb from telomere) was “equivalent to background”. The “silencing of mating type genes” value in [4] is reported as “completely abrogated silencing”. For the same molecule, the “mode of inhibition of Sir2 deacetylation (Lineweaver-Burk plot)” value in [5] is on record as “strong non-competitive inhibitor”. The “telomeric silencing of ADE2 marker” value in the assay on silencing at telomeres was “complete loss of repression”. In the assay on Sir2, the Sir2 protein levels result was “unaltered”. For the same molecule, in [6] (sir2 strain), the “rDNA recombination in the sir2 strain” value is on record as “did not further increase recombination”. The “increase of the frequency of ADE2 marker loss at the rDNA” value in [6] (wild type and 2×SIR2 cells) was ~7 fold. Moreover, in [7] (alpha factor arrested cells, 5 mM nicotinamide), the “HMR silencing in G1-arrested cells by FACS” value was “loss of silencing”. In addition, in [7], the “GFP expression from HMR by FACS” value is given as “complete derepression”. Moreover, the “GFP expression from HMR, live cells (microscopy)” value in [7] (cycling cells, 5 mM nicotinamide, after 60 minutes) is listed as “dramatic increase in the level of expression”.

On to `O=C(O)c1cccnc1` [nicotinic acid], for which the “effect on the activity of SIRT1 in vitro” value at recombinant human SIRT1 (50 μM compound, 200 μM NAD+) was “no effect”. Moreover, the “effect on replicative life span” value in assay [1] (5 or 50 mM nicotinic acid) is on record as “no detrimental effect”. The “Average life span, sir2 strain” value in assay [1] (sir2 strain, nicotinic acid (concentration not clear)) was determined as 12.2. Further, the “Average life span, wild type” value was 26 in assay [1] (wild type, 5 mM nicotinic acid) and 25 in assay [1] (wild type, 50 mM nicotinic acid). Moreover, the “effect on Sir2-dependent silencing” value in [2] (5 mM nicotinic acid, each of the rDNA, telomeric and mating type silencing assays) is given as “no effect”. For the same molecule, the “GFP expression from HMR by FACS” value in assay [7] is given as “no increase in GFP expression”.

For `O=C(O)c1cccnc1C(=O)O` [quinolinic acid], the “GFP expression from HMR by FACS” value in [7] is “no increase in GFP expression”.
